Measured values as given in ChEMBL document CHEMBL1130155, “Synthesis and structure-activity relationships of potent thrombin inhibitors: piperazides of 3-amidinophenylalanine” (J Med Chem, 1997).

Columns and labels:
Prothrombin [1] = biological target: T1, Prothrombin (Bos taurus, UniProt P00735); assay: Inhibitory activity against thrombin.
[2] = Concentration for doubling of thrombin time; type: functional, Homo sapiens
[3] = biological target: T2, Urokinase-type plasminogen activator (Homo sapiens, UniProt P00749); assay: Inhibitory activity against urokinase (UK )
[4] = biological target: Vitamin K-dependent protein C (Homo sapiens, UniProt P04070); assay: Inhibitory activity against Activated protein C
Sequence of Vitamin K-dependent protein C (P04070 43-197 limits assumed): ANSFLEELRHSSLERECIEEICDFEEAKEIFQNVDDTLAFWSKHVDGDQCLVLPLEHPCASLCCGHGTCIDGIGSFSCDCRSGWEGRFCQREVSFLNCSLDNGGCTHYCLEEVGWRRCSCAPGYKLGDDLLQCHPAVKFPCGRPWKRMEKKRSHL
Sequence of Vitamin K-dependent protein C (P04070 212-461 limits assumed): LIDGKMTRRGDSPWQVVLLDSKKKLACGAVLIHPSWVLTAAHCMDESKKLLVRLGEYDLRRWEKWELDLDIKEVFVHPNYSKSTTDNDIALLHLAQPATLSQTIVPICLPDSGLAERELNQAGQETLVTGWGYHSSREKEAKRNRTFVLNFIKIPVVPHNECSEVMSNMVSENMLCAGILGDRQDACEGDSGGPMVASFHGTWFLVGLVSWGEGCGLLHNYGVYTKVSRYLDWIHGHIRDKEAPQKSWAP

Serine protease 1 = biological target: T3, Serine protease 1 (Bos taurus, UniProt P00760); assay: Inhibitory activity against trypsin
T3 sequence (P00760 whole entry): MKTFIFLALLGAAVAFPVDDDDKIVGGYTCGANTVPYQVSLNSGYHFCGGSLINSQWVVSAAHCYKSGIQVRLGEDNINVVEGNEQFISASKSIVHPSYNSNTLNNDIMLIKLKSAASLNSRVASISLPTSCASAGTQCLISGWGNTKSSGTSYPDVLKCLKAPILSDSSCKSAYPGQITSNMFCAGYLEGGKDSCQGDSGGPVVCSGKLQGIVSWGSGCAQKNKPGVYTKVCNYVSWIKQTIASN

Coagulation factor XII = biological target: T4, Coagulation factor XII (Homo sapiens, UniProt P00748); assay: Inhibitory activity against Coagulation factor XII
T4 sequence (P00748 whole entry): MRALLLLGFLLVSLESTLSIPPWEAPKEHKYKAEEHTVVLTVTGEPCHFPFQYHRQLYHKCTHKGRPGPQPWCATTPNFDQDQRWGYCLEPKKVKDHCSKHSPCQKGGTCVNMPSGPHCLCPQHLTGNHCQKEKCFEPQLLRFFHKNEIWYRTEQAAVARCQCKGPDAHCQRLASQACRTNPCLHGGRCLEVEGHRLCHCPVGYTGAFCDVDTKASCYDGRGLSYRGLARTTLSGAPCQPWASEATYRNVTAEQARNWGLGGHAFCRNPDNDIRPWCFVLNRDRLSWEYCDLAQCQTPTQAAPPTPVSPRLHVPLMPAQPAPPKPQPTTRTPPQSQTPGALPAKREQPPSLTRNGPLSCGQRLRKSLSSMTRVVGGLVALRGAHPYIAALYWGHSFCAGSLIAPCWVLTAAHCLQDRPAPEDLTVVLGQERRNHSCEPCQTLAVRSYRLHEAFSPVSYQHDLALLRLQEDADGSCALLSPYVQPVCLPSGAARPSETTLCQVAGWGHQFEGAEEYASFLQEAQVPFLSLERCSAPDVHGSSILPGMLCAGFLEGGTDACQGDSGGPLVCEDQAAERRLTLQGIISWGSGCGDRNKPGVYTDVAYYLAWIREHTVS

Plasma kallikrein [5] = biological target: T5, Plasma kallikrein (Homo sapiens, UniProt P03952); assay: Inhibitory activity against plasma kallikrein (PK.); type: cell-free
T5 sequence (P03952 20-390 limits assumed): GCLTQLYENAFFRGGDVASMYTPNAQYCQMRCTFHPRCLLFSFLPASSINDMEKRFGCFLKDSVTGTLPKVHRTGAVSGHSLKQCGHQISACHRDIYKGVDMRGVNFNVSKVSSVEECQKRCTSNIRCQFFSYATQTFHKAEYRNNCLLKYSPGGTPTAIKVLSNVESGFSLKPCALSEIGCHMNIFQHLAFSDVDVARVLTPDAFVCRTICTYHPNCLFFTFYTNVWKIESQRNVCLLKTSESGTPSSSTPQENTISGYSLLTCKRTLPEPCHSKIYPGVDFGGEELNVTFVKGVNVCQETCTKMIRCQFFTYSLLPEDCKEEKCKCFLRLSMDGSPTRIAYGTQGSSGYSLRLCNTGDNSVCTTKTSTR
T5 sequence (P03952 391-638 limits assumed): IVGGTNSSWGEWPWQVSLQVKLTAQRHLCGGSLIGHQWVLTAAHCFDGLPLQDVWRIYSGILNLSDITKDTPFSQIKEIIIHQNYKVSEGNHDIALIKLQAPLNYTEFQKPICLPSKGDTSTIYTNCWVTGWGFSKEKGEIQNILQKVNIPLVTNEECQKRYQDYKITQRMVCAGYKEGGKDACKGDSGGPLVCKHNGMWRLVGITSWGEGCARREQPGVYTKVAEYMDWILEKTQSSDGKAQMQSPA

[6] = biological target: Tissue-type plasminogen activator (Homo sapiens, UniProt P00750); assay: Inhibitory activity against single-chain tissue-type plasminogen activator (sc-tissue plasminogen activator)
Sequence of Tissue-type plasminogen activator (P00750 whole entry): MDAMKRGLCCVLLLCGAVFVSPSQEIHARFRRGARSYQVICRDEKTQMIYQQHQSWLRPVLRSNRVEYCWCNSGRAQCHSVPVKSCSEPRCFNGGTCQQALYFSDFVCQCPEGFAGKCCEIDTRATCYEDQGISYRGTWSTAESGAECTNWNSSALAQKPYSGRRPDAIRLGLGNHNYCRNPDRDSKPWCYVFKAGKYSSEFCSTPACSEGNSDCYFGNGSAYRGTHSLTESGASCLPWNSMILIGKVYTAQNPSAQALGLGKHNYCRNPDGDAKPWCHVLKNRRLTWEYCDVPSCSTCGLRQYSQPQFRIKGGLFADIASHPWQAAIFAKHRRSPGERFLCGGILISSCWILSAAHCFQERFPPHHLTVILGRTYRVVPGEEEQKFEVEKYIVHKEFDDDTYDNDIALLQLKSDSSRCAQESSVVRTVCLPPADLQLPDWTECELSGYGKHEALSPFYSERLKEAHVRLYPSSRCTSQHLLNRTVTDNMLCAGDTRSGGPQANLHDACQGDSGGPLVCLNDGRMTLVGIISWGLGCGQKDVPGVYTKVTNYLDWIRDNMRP

Prothrombin [7] = biological target: T1, Prothrombin
Plasminogen = Plasminogen (Homo sapiens, UniProt P00747); assay: Inhibitory activity against Plasmin.
Sequence of Plasminogen (P00747 97-580 limits assumed): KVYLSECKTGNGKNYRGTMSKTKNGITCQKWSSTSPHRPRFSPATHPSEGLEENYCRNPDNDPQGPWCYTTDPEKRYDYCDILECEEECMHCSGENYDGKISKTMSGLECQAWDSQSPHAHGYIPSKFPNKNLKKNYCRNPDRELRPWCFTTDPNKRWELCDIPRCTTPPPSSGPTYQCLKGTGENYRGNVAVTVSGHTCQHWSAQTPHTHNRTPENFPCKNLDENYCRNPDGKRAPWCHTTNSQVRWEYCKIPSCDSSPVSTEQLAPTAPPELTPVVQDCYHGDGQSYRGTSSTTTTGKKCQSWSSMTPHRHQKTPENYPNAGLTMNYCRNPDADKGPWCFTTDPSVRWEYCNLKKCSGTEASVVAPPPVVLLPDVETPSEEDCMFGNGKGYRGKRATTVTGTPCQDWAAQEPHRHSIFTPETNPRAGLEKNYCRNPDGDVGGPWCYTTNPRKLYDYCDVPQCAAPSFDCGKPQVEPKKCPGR
Sequence of Plasminogen (P00747 581-810 limits assumed): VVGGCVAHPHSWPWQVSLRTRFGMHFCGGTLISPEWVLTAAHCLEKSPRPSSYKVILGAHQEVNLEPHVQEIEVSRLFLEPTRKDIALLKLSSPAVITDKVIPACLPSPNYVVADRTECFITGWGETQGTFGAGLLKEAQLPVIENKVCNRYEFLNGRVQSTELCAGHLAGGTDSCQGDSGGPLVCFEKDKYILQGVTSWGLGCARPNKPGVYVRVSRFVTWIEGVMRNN

[8] = Concentration for doubling of partial thromboplastin time; type: functional, Homo sapiens
Coagulation factor X = Coagulation factor X (Bos taurus, UniProt P00743); assay: Inhibitory activity against coagulation factor X.
Sequence of Coagulation factor X (P00743 41-180 limits assumed): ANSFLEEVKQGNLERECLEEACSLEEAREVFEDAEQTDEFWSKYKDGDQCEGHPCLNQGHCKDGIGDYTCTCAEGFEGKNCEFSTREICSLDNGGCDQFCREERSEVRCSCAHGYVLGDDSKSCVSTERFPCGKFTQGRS
Sequence of Coagulation factor X (P00743 234-492 limits assumed): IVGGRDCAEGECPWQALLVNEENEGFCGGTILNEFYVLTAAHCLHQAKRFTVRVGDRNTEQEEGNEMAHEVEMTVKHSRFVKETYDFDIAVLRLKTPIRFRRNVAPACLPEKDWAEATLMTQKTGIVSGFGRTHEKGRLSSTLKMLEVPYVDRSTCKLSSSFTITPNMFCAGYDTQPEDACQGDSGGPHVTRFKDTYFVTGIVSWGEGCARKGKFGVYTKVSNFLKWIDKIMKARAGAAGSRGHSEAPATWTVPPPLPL

[9] = Concentration for doubling of prothrombin time; type: functional, Homo sapiens
[10] = biological target: T2, Urokinase-type plasminogen activator; assay: Inhibitory activity against UK.
Plasma kallikrein [11] = biological target: T5, Plasma kallikrein; assay: Inhibitory activity against Kallikrein (PK)
[12] = 50 mg/kg was administered orally in anesthetized rats and the concentration in plasma was determined after 30 minutes.; settings: rat, po
[13] = 1 mg/kg was administered intravenously in anesthetized rats and the concentration in plasma was determined after 15 minutes.; settings: rat, iv
[14] = 50 mg/kg was administered orally in anesthetized rats and the concentration in plasma was determined after 15 minutes.; type: ADME, organism-based; settings: rat, po, read-out: Activity
[15] = 50 mg/kg was administered orally in anesthetized rats and the concentration in plasma was determined after 45 minutes.; type: ADME, organism-based; settings: rat, po, read-out: Activity
[16] = 50 mg/kg was administered orally in anesthetized rats and the concentration in plasma was determined after 120 minutes.; settings: rat, po
[17] = 50 mg/kg was administered orally in anesthetized rats and the concentration in plasma was determined after 180 minutes.; settings: rat, po
[18] = 1 mg/kg was administered intravenously in anesthetized rats and the concentration in plasma was determined after 30 minutes.; settings: rat, iv
[19] = 50 mg/kg was administered orally in anesthetized rats and the concentration in plasma was determined after 90 minutes.; type: ADME, organism-based; settings: rat, po, read-out: Activity
[20] = 1 mg/kg was administered intravenously in anesthetized rats and the concentration in plasma was determined after 240 minutes.; settings: rat, iv
[21] = 50 mg/kg was administered orally in anesthetized rats and the concentration in plasma was determined after 60 minutes.; settings: rat, po
[22] = 50 mg/kg was administered orally in anesthetized rats and the concentration in plasma was determined after 5 minutes.; type: ADME, organism-based; settings: rat, po, read-out: Activity
[23] = 1 mg/kg was administered intravenously in anesthetized rats and the concentration in plasma was determined after 5 minutes.; settings: rat, iv
[24] = 1 mg/kg was administered intravenously in anesthetized rats and the concentration in plasma was determined after 2 minutes.; settings: rat, iv
[25] = 1 mg/kg was administered intravenously in anesthetized rats and the concentration in plasma was determined after 45 minutes.; settings: rat, iv
[26] = 1 mg/kg was administered intravenously in anesthetized rats and the concentration in plasma was determined after 120 minutes.; settings: rat, iv
[27] = 1 mg/kg was administered intravenously in anesthetized rats and the concentration in plasma was determined after 180 minutes.; settings: rat, iv
[28] = 1 mg/kg was administered intravenously in anesthetized rats and the concentration in plasma was determined after 60 minutes.; settings: rat, iv
[29] = 1 mg/kg was administered intravenously in anesthetized rats and the concentration in plasma was determined after 90 minutes.; settings: rat, iv

`CC1CCN(C(=O)[C@@H](Cc2cccc(C(=N)N)c2)NS(=O)(=O)c2ccc3ccccc3c2)CC1` gave a Ki (Prothrombin [1]) of 0.0025 µM.
With `CN1CCN(C(=O)[C@@H](Cc2cccc(C(=N)N)c2)NS(=O)(=O)c2ccc3ccccc3c2)CC1` the IC50 [2] was 0.22 µM, the Ki [3] was 110 µM and the Ki [4] was 94 µM. The Ki (Serine protease 1) was 0.47 µM, the Ki (Coagulation factor XII) was 280 µM and the Ki (Plasma kallikrein [5]) was 35 µM. It also gave a Ki [6] of over 1000 µM, a Ki (Prothrombin [7]) of 0.016 µM and a Ki (Plasminogen) of 30 µM. The IC50 [8] was 1.2 µM, the Ki (Coagulation factor X) was 19 µM and the IC50 [9] was 1.8 µM.
`N=C(N)c1cccc(C[C@@H](NS(=O)(=O)c2ccc3ccccc3c2)C(=O)N2CCN(C=O)CC2)c1` gave an IC50 [2] of 0.063 µM, a Ki [4] of 10.3 µM and a Ki (Serine protease 1) of 0.073 µM. The Ki (Coagulation factor XII) was 53 µM, the Ki [6] was 110 µM and the Ki [10] was 34 µM. It also gave a Ki (Prothrombin [7]) of 0.023 µM, a Ki (Plasminogen) of 3.3 µM and an IC50 [8] of 0.35 µM. The Ki (Plasma kallikrein [11]) was 3.3 µM, the Ki (Coagulation factor X) was 9.7 µM and the IC50 [9] was 0.7 µM.
Compound `CC(=O)N1CCN(C(=O)[C@@H](Cc2cccc(C(=N)N)c2)NS(=O)(=O)c2ccc3ccccc3c2)CC1` has an IC50 [2] of 0.062 µM, a Ki [4] of 12 µM and a concentration at 0.5 h [12] of 450 ng/mL. The concentration at 0.25 h [13] was 610 ng/mL, the concentration at 0.25 h [14] was 410 ng/mL and the Ki (Serine protease 1) was 0.044 µM. It also gave a Ki (Coagulation factor XII) of 200 µM, a concentration at 0.75 h [15] of 410 ng/mL and a concentration at 2 h [16] of 260 ng/mL. The concentration at 3 h [17] was 300 ng/mL, the Ki [6] was 410 µM and the concentration at 0.5 h [18] was 270 ng/mL. For the same compound, the concentration at 1.5 h [19] was 270 ng/mL, the concentration at 4 h [20] was under 40 ng/mL and the concentration at 1 h [21] was 380 ng/mL. For the same compound, the concentration at 5 min [22] was 230 ng/mL, the concentration at 5 min [23] was 2080 ng/mL and the concentration at 2 min [24] was 3550 ng/mL. For the same compound, the Ki [10] was 32 µM, the concentration at 0.75 h [25] was 170 ng/mL and the Ki (Plasminogen) was 5.2 µM. For the same compound, the concentration at 2 h [26] was 90 ng/mL, the concentration at 3 h [27] was under 40 ng/mL and the IC50 [8] was 0.28 µM. For the same compound, the concentration at 1 h [28] was 130 ng/mL, the Ki (Plasma kallikrein [11]) was 15 µM and the concentration at 1.5 h [29] was 100 ng/mL. It also gave a Ki (Coagulation factor X) of 34 µM and an IC50 [9] of 0.76 µM.
